Results on six molecules are retold here after patent US20070092551A1, “Therapeutic agent” (TAKARA BIO INC., priority 2003, published 2007).

Some results are limits rather than exact numbers.

Type in all cases: cell-based
The subject of test [1] is mature adipocytes (3T3-L1 cells). In words: Enhancing action on glucose uptake (2-deoxyglucose) into mature adipocytes. The conditions noted are these: Mus musculus, 3T3-L1, X=(S−N)/(P−N) of 2-deoxyglucose uptake, P=insulin 1 μg/mL, read-out: Enhancing Action on Glucose Uptake.
The next test deals with 3T3-L1 cells. Kind of test: Induction of adipocyte differentiation (amount of triglyceride biosynthesis). To be noted: Mus musculus, 3T3-L1, X=(S−N)/(P−N) of amount of triglyceride, P=insulin positive control, read-out: Action for Induction of Differentiation. In a few lines:
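Differentiation scored as X=(S−N)/(P−N), ranked +++, ++, +, +/−, where S, N and P are triglyceride with compound, DMSO and insulin; triglyceride was extracted with hexane:isopropanol (3:2) and assayed twice. Compound was added after 7 days' growth, first with 0.25 μM dexamethasone (45 h), then for 7 days.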

For test [2], the target named is T1, fusion protein of an yeast GAL4 DNA-binding domain and a human PPARγ ligand-binding site (Homo sapiens, UniProt P37231).
T1 construct: expressed in transfected cells; host or cells: CV-1 cells
T1 sequence (P37231 204-505): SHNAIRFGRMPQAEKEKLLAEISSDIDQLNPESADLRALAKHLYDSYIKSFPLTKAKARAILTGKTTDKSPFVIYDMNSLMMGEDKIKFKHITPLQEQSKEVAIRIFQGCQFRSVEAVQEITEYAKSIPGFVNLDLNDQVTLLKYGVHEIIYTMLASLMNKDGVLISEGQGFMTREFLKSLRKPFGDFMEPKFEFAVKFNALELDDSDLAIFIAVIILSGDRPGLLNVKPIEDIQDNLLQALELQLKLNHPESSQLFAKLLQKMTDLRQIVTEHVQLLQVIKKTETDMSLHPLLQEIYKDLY
In words: PPARγ activation reporter assay in CV-1 cells. The conditions noted are these: test compound 10 μM, pFA-CMV (PPARγ), 24 hours. The method, then: The activation ability for PPARγ was determined by a reporter assay using a fusion protein of an yeast GAL4 DNA-binding domain and a human PPARγ ligand-binding site.
A plasmid (pGAL4/GL3-Promoter) was prepared by repeating five times insertion of a binding site (UASg) of GAL4 into a multicloning site of a pGL3-Promoter vector (Promega). In addition, a ligand-binding site (amino acid sequence 204 to 505) of the PPARγ gene was cloned from a human liver cDNA library (manufactured by TAKARA BIO INC.) by a polymerase chain reaction, and the ligand-binding site was inserted into a multicloning site of a pFA-CMV plasmid vector ([…]) to give pFA-CMV (PPARγ).
Escherichia coli JM-109 strain was transformed with each of the two kinds of the plasmids obtained by the above-mentioned procedures, and pFA-CMV and pRL-TK (Promega) according to a conventional method. Each of the Escherichia coli cells was cultured with shaking at 37° C. for 18 hours in an LB medium containing 100 μg/mL ampicillin. Thereafter, the plasmids of each were purified according to the procedure manual of QIAfilter Plasmid midi Kit (QIAGEN).
CV-1 cells were seeded in a 24-well plate so as to have a density of 4×10^4 cells per well. Thereafter, the cells were cultured in a Dulbecco's modified Eagle's medium (manufactured by Sigma, D5796) containing 10% fetal bovine serine (manufactured by Bio Whittaker) for 24 hours under the conditions of 37° C. and 5% CO2. Thereafter, in accordance with the procedure manual of LipofectAmine 2000 (Invitrogen), the gene transfer was carried out into the CV-1 cells with 200 ng of pFA-CMV (PPARγ) or pFA-CMV, 400 ng of pGAL4/GL3-promoter, and 200 ng of pRL-TK per well, and thereafter the cells were cultured for 24 hours under the conditions of 37° C. and 5% CO2. Thereafter, the medium was exchanged with a Dulbecco's modified Eagle's medium to which a test compound dissolved in dimethyl sulfoxide was previously added so as to have a final concentration of 10 μM. Thereafter, the cells were cultured for additional 24 hours. In addition, there were set a group with addition of dimethyl sulfoxide in place of a test compound as a negative control, and a group with addition of troglytazone (manufactured by Calbiochem) so as to have a final concentration of 3 μM as a positive control. The cells were washed with a phosphate buffered saline, and 5× PassiveLysisBuffer (Promega) which was previously diluted in 5-folds with distilled water was added thereto in an amount of 100 μL per well. The mixture was shaken at room temperature for 15 minutes to lyse cells. Twenty microliters of this lysed solution was applied in accordance with the procedure manual of Dual Luciferase Assay System (Promega), and a fluorescent luciferase emission intensity and a Renilla mullerei luciferase emission intensity were measured using Mithras-LB940 (BERTHOLD TECHNOLOGIES GmbH). The enhancing action for transcriptional activation of each test compound was shown as a relative value obtained by calculating a ratio of the fluorescent luciferase emission intensity to the Renilla mullerei luciferase emission intensity, wherein the value of the group with addition of the negative control is defined as 1.

The subject of test [3] is mature adipocytes (3T3-L1 cells). In words: Glucose uptake enhancement inhibited by cytochalasin B. The conditions noted are these: cytochalasin B 40 μM added to the 4-hydroxyderricin 7.8 μM, insulin 1 μg/mL and negative control groups. The method, then:
The influence of cytochalasin B on 2-deoxyglucose uptake into matured adipocytes during the stimulation with the sample in the adipocytes was tested in accordance with the method shown in Example 83 on whether or not the enhancing action of 4-hydroxyderricin on glucose uptake shown in Example 83 is inhibited by cytochalasin B, which is an inhibitor of a glucose transporter.
Specifically, as a sample, a group with addition of a dimethyl sulfoxide solution of 4-hydroxyderricin so as to have a final concentration of 7.8 μM was set. Here, there were set a group without addition of the sample as a negative control and a group with addition of insulin so as to have a final concentration of 1 μg/mL as a positive control. Furthermore, there was set a group with addition of cytochalasin B (manufactured by nacalai tesque, 10435-81) to each group so as to have a final concentration of 40 μM in the same time as the time of addition of insulin. Thereafter, 2-deoxy-[1,2-^3H(N)]-glucose subjected to uptake into the adipocytes was determined in the same manner.

In test [4] the test system is mature adipocytes which were induced to be differentiated by xanthoangelol. In words: Glucose uptake into adipocytes induced to be differentiated by xanthoangelol. The conditions noted are these: stimulation with insulin 1 μg/mL; adipocytes differentiated with xanthoangelol 10 μM. The method, then: Adipocytes which were induced to be differentiated by xanthoangelol were obtained, and thereafter it was confirmed on whether the glucose uptake into the adipocytes is enhanced by stimulation with insulin or 4-hydroxyderricin.
Specifically, as a sample, there was set a group with addition of a dimethyl sulfoxide solution of xanthoangelol having a final concentration of 10 μM. Thereafter, the medium and the sample were exchanged in the same manner as in the method described in Example 82 except that 3-isobutyl-1-methylxanthine having a final concentration of 0.5 mM was added concurrently with the addition of dexamethasone, to give mature adipocytes which were induced to be differentiated by xanthoangelol.
Next, the amount of 2-deoxyglucose uptake into the mature adipocytes during the stimulation with insulin or 4-hydroxyderricin in the resulting mature adipocytes was determined in the same manner as in the method described in Example 83.
Specifically, there were set the group without the addition and the group with addition of insulin having a final concentration of 1 μg/mL or 4-hydroxyderricin having a final concentration of 20 μM. Thereafter, the amount of 2-deoxy-[1,2-^3H(N)]-glucose uptake into the adipocytes was determined in the same manner.

The test system of test [5] is insulin-resistant mature adipocytes. Kind of test: Enhancing action on glucose uptake into insulin-resistant (TNF-α treated) mature adipocytes. To be noted: group treated with insulin; mature adipocytes treated with mouse-derived TNF-α 10 or 20 ng/mL. As to the method: It is said that tumor necrosis factor a (TNF-α) is deeply involved in insulin resistance, and it has been known that a signal from an insulin receptor is inhibited by treating mature adipocytes with TNF-α, so that a reaction of glucose uptake is inhibited by insulin stimulation (Proc. Natl. Acad. Sci. USA, vol. 91, p 4854-4858 (1994)). The enhancing action by 4-hydroxyderricin on glucose uptake into mature adipocytes in which insulin resistance was induced by TNF-α was evaluated.
The induction of differentiation into mature adipocytes was carried out in the same manner as in the method described in Example 83, except that after preparation of the mature adipocytes, in order to induce insulin resistance in these mature adipocytes, mouse-derived TNF-α (manufactured by Cosmobio, 3410) was added to the medium so as to have a final concentration of 10 ng/mL or 20 ng/mL, and the adipocytes were cultured for additional 2 days. […]
The enhancing action on glucose uptake was evaluated in the same manner as in the method described in Example 83. For each of the cells prepared in item (1) of Example 95 mentioned above, there were set a group containing 4-hydroxyderricin at a final concentration of 30 μM, a group without addition of the sample as a negative control, and a group with treatment with insulin, and the radioactivity of each group was determined. […]

For the molecule `CCOC(C)(C)C(O)CC/C(C)=C/Cc1c(O)ccc(C(=O)/C=C/c2ccc(O)cc2)c1O` (stereo not drawn) [TB6, 1-[3-(7-ethoxy-6-hydroxy-3,7-dimethyl-2-octenyl)-2,4-dihydroxyphenyl]-3-(4-hydroxyphenyl)-2-propen-1-one], the activation at 30 µM in test [1] was 30 to 60%. Moreover, in the test on 3T3-L1 cells, the activation at 3 µM lay in the range of 15 to 30% and the activation at 10 µM is > 100%.

Turning to `COc1ccc(C(=O)/C=C/c2ccc(O)cc2)c(O)c1C/C=C(\C)C/C=C/C(C)(C)OO` [TB8, 1-[2-hydroxy-3-(7-hydroperoxy-3,7-dimethyl-2,5-octadienyl)-4-methoxyphenyl]-3-(4-hydroxyphenyl)-2-propen-1-one], in test [1], the activation at 3 µM lay in the range of 15 to 30%, the activation at 10 µM was 60 to 100% and the activation at 30 µM was 60 to 100%. Further, in the test with 3T3-L1 cells, the activation at 3 µM was 30 to 60% and the activation at 10 µM was > 100%.

In the case of `C=C(C)C(CC/C(C)=C/Cc1c(OC)ccc(C(=O)/C=C/c2ccc(O)cc2)c1O)OO` (stereo not drawn) [TB9, 1-[2-hydroxy-3-(6-hydroperoxy-3,7-dimethyl-2,7-octadienyl)-4-methoxyphenyl]-3-(4-hydroxyphenyl)-2-propen-1-one], in test [1], the activation at 3 µM fell in the range of 15 to 30%, the activation at 10 µM was 15 to 30% and the activation at 30 µM is 30 to 60%. In the test on 3T3-L1 cells, the activation at 10 µM was > 100%.

Turning to `COc1cc(O)c(CC=C(C)C)c(O)c1C(=O)/C=C/c1ccc(O)cc1` [Xanthohumol, 4,2′,4′-trihydroxy-3′-prenyl-6′-methoxychalcone], in test [2], the “enhancing action for transcriptional activation (PPARγ)” value is on record as “no enhancing action for transcriptional activation was found”. In addition, the activation at 4 µM with 3T3-L1 cells (4 μM) is 15 to 30%. The activation at 13 µM in the test on 3T3-L1 cells (13 μM) was 30 to 60%.

`C=C1[C@@H](C)[C@H]2[C@H](Cc3ccccc3)NC(=O)[C@]23OC(=O)/C=C/[C@H](O)CCC[C@@H](C)C/C=C/[C@H]3[C@@H]1O` [cytochalasin B, reference compound]: the “2-deoxy-[1,2-3H(N)]-glucose uptake on addition of cytochalasin B” value in test [3] was “almost completely inhibited”.

In the case of “insulin: insulin (manufactured by TAKARA BIO INC.), positive control”, the “2-deoxy-[1,2-3H(N)]-glucose uptake” value in test [4] is “enhancement of 2-deoxy-[1,2-^3H(N)]-glucose uptake”. Also, the “enhancing action on glucose uptake, increase without TNF-α defined as 100%” value in test [5] is listed as “around 40%”.
